Counter-ions that a name gives are not always drawn.

Consider `COCCN1CCN(c2cccc3ccc(NC(=O)c4ccc(Cl)cc4)cc23)CC1` (as salt: hydrochloride) [Example 65, 7-(4-Chlorobenzamido)-1-(4-methoxyethyl-1-piperazinyl)-naphthalene], for which the melting point (usually the temperature, or range, at which the solid turns liquid) is 134 to 148 °C. The result for `CCCCCC(=O)Nc1ccc2cccc(N3CCN(C)CC3)c2c1` [Example 17, 7-Hexanamido-1-(4-methyl-1-piperazinyl)-naphthalene] reads 144 to 146 °C; that for `CN1CCN(c2cccc3ccc(NC(=O)c4ccccc4)cc23)CC1` [Example 1, 7-Benzamido-1-(4-methyl-1-piperazinyl)-naphthalene], 173 to 175 °C. The result for `CN1CCN(c2cccc3ccc(C(O)c4ccccc4)cc23)CC1` (stereo not drawn) [Example 44, 7-(α-Hydroxybenzyl)-1-(4-methyl-1-piperazinyl)-naphthalene] reads 162.5 to 163 °C. Regarding `CN1CCN(c2cccc3ccc(C(O)(c4ccccc4)c4ccccc4)cc23)CC1` [Example 45, 7-(Diphenylhydroxymethyl)-1-(4-methyl-1-piperazinyl)-naphthalene], the melting point lay within 217.5 to 218.5 °C.

Source of the values: patent US20050080090A1, “Naphthalene derivatives” (priority 1993, published 2005).
